Experimental data published in patent publication US20050186237A1, “Bird repellent” (priority 2002, published 2005).
Marks after values point to notes of the source that are not given here.

How the values were obtained:
brushtail possums = settings: Day et al, 2000; cited from earlier work
wild possums = assay: Palatability of treated baits at possum-specific bait stations; type: in vivo, Trichosurus vulpecula
Source text: (§1) To determine the palatability of baits to wild possums and wild rats, possum-specific bait stations and rat-specific bait stations were established in bush-pasture margin and forest habitats (see FIG. 1 and FIG. 2).
The possum-specific bait station (FIG. 1) is mounted on an elevated wire stake 4 with bait 2 attached in a perforated bag 1 at top of wire 4. A plastic disc 3 is used to stop rodents (not shown) climbing wire 4 has plasticine (not shown) on it to record animal activity.
(§2) The bait stations (FIGS. 1 and 2) enable determination of the response of possums or rats to bait 2. Plasticine 5 is used to record the presence (e.g. footprints, claw marks, bite marks) and species of animal present at the bait station.
(§3) In this example the repellence of neem (a known repellent), lime (a known repellent), anthraquinone and d-pulegone (compounds of the present invention) in cereal, carrot and paste baits are tested on wild possums and rats.
(§4) The following bait treatments are compared: • standard (solution of dye+water+0.1% cinnamon oil) • cinnamamide (solution of dye+water+0.5% cinnamamide) • neem (solution of dye+water+2% neem oil) • lime (solution of dye+water+2% agricultural lime) • anthraquinone (solution of dye+water+0.75% anthraquinone formulation). • d-pulegone (solution of dye+water+1% d-pulegone) • salt (solution of dye+water+salt (10% of total bait weight))
(§5) Treatments are applied to the cereal and carrot bait surface at a rate of 10% of total bait weight. The treatments are applied to the paste bait by mixing the solution through the bait, again at a rate of 10% of total bait weight.
(§6) The treatments are placed on the bait stations as described above and possum and rat activity measured.
(§7) The following bait treatments were compared (only carrot baits are compared): • standard (solution of dye+water+0.1% cinnamon oil) • anthraquinone 1 (solution of dye+water+1% anthraquinone formulation) • anthraquinone 2 (solution of dye+water+2% anthraquinone formulation) • d-pulegone 1 (solution of dye+water+1% d-pulegone) • d-pulegone 2 (solution of dye+water+2% d-pulegone) • combination 1 (solution of dye+water+1% anthraquinone formulation+1% d-pulegone) • combination 2 (solution of dye+water+2% anthraquinone formulation+2% d-pulegone) • salt (solution of dye+water+salt (10% of total bait weight))
(§8) All quantities given in percent by weight and all bait treatment, bait station set-up and subsequent measurement are as described in Example 1.

wild rats = assay: Palatability of treated baits at rat-specific bait stations; type: in vivo, Rattus spp.
Description: as §1
The rat-specific bait station (FIG. 2) is an approximately 60 mm diameter tube 6 with bait 2 placed in the centre and tube 6 is pinned to ground with holding stake 4. Plasticine 5 is added at either end of the tube 6 to record animal activity.
as §2, §3, §4, §5, §6, §7, §8

house sparrows = assay: Sparrow treated wheat choice test, 4-day periods (Example 8, Experiment 1); type: in vivo, Passer domesticus; settings: mean daily percentage of wheat eaten over 4-day test periods; choice with plain wheat
Description: The feeding behavior of free-ranging house sparrows (Passer domesticus) presented wheat treated with anthraquinone paired with either a novel visual cue (blue dye), cinnamon oil (containing primarily olfactory cues), or d-pulegone (containing olfactory and taste cues), was recorded, to determine the suitability of repellent combinations for preventing non-target birds from consuming pesticides or other harmful substances.
Eight independent populations of house sparrows, were trained to eat plain hulled wheat from four identical food trays on feed tables.
In Experiment 1, sparrows were presented, for 4-day periods, with a choice between plain wheat, anthraquinone treated wheat, and two of the remaining repellent combinations (anthraquinone and cinnamon oil, anthraquinone and blue dye, anthraquinone and d-pulegone (at 0.5% wt or 2.0% wt concentrations)) until all sparrow populations had been exposed to each repellent.
The consumption of plain wheat and anthraquinone treated wheat was compared to the consumption of the repellent combinations every 24 hr.

wild sparrows = assay: Sparrow feed table dose response and combination test on treated wheat (Example 7); type: in vivo; settings: FIGS. 6-8; result in words
Source text: Wild sparrow tests were used to determine the effect of the individual repellency compared with the combination repellency.
On sparrow feed tables, sparrows were offered a choice between control wheat and three doses of repellent treated wheat.

rats = settings: Day et al, 2000; cited from earlier work
several bird species = settings: 1% w/w concentration; including European starlings and northern bobwhites; cited from earlier work
[1] = Example 1, by bait treatment (cereal, carrot, paste baits), first exposure
[2] = Example 1, by bait treatment, first exposure
[3] = Example 1, by bait treatment, subsequent exposures
[4] = Example 2, carrot baits, first exposure
[5] = Example 2, carrot baits, subsequent exposures

Row | Molecule | Acceptance of treated baits by possums (brushtail possums) | Proportion of bait stations left untouched (wild possums; [1]) | Proportion of bait stations with bait eaten when encountered (wild possums; [2]) | Proportion of bait stations left untouched (wild possums; [3]) | Proportion of bait stations with bait eaten when encountered (wild possums; [3]) | Proportion of bait stations eaten when encountered (wild rats; [2]) | Proportion of bait stations left untouched (wild rats; [2]) | Proportion of bait stations eaten when encountered (wild rats; [3]) | Proportion of bait stations left untouched (wild rats; [3]) | Amount of wheat eaten by sparrows relative to control wheat or single repellents (wild sparrows) | Acceptance of treated baits by rats / wild rodents (rats) | further results
1 | O=C1c2ccccc2C(=O)c2ccccc21 [Anthraquinone] | readily eaten by possums | 0.67 | 0.80 | 0.35 | 1.00 | 1.00 | 0.64 | 0.65 | 0.57 | reduced the amount of wheat eaten by sparrows on days 3 and 4 | readily take anthraquinone treated baits from bait stations | Wheat consumption, percentage of that offered (house sparrows): 54%
2 | NC(=O)C=Cc1ccccc1 [Cinnamamide, cinnamamide] |  | 0.55 | 0.71 | 0.29 | 0.95 | 0.67 | 0.77 | 0.70 | 0.66 |  |  | 
3 | CC(C)=C1CC[C@@H](C)CC1=O [d-pulegone, d-Pulegone] | readily take carrot baits | 0.52 | 0.87 | 0.30 | 0.98 | 0.70 | 0.63 | 0.75 | 0.55 | reduced the quantity of wheat eaten by sparrows on days 1, 3 and 4 | readily take carrot baits | Repellence of birds (several bird species): repel several bird species
4 | Salt |  | 0.37 | 0.30 | 0.29 | 0.38 | 0.00 | 0.86 | 0.16 | 0.72 |  |  | Proportion of bait stations eaten when encountered (wild possums; [4]): 1.00; Proportion of bait stations left untouched (wild possums; [4]): 0.82; Proportion of bait stations eaten when encountered (wild possums; [5]): 0.43*; Proportion of bait stations left untouched (wild possums; [5]): 0.30*; Proportion of bait stations eaten when encountered (wild rats; [4]): 0.22; Proportion of bait stations left untouched (wild rats; [4]): 0.18; Proportion of bait stations eaten when encountered (wild rats; [5]): 0.33*; Proportion of bait stations left untouched (wild rats; [5]): 0.50
